From patent US10624992B2, “Human airway stem cells in lung epithelial engineering” (The General Hospital Corporation, priority 2016, dated 2020) come the findings set out here.

Test [1] has as its system primary epithelial basal cells (BESCs). The test is described as follows: Notch inhibitor treatment of primary epithelial basal cells in vitro (qPCR, immunofluorescence). It counts as cell-based, human. Conditions: 5 days in vitro, compared to No Treatment. As to the method:
(§1) Donor lung peripheral tissue (1-inch cubed) was washed in αMEM and then chopped into ˜¼ inch pieces with scissors and digested in 0.1 mg/ml DNAse (Sigma) and 1.4 mg/ml Pronase (Roche, 11459643001) for 24 hours/4° C. (52). Digested tissue was plated onto uncoated culture flasks in SAGM for 30 minutes/37° C., then non-adherent cells transferred and adhered to human Collagen-IV (Sigma-Aldrich C7521)-coated flasks. Epithelial cells were maintained in SAGM (Lonza, CC-3118) and passaged at 80% confluent (approximately 3-5 days/passage). For cells treated with γ-secretase inhibitors (1) 3-Isobutyl-1-methylxanthine (100 μg/ml IBMX, Sigma-Aldrich, 15879) and (2) N-[(3,5-Difluorophenyl)acetyl]-L-alanyl-2-phenyl]glycine-1,1-dimethylethyl ester (50 μg/ml DAPT, Selleck Chemicals, S2215), media was changed daily. Primary endothelial cells were isolated from the large vessels of donor lungs using the same digestion protocol. The endothelial population was sorted for CD31^+ purity by flow cytometry, and maintained and expanded on Gelatin coated flasks in EGM2 (Lonza, CC-3162) until utilized for human lung recellularization (See FIGS. 7A-B). RNA was isolated using the RNEasy Plus (Qiagen). cDNA was transcribed using the Superscript III kit (Invitrogen). Quantitative gene expression was analyzed using Taqman probes and the OneStep Plus system (Applied Biosystems). […]
(In general: Real-time PCR tracks product formation cycle by cycle.)

For test [2], the system named is BESCs on acellular rat lung scaffolds. The test is described as follows: Rat lung scaffold recellularization and ex vivo culture with Notch inhibitors. It counts as cell-based, human. Particulars: DAPT 50 nM in vitro 5 days, then 5 days ex vivo on rat lung scaffold without inhibitors. Here is the method:
Primary lung epithelial cells (passage 3) were harvested from 2-D culture, counted, and re-introduced to the scaffold airways in solution (20 ml) by gravity. Continuous media perfusion through the pulmonary artery was maintained at 4 ml/min by peristaltic pump and changed daily.
RNA was isolated using the RNEasy Plus (Qiagen). cDNA was transcribed using the Superscript III kit (Invitrogen). Quantitative gene expression was analyzed using Taqman probes and the OneStep Plus system (Applied Biosystems). Expression was normalized to β-Actin expression and relative to cadaveric lung tissue control samples.
Primary Antibodies (1:100): p63 (Santa Cruz, sc-25268), Krt5 (Abcam, ab24647), E-cadherin (BD, 610181), Surfactant Protein-B (Millipore, AB3430), pro-Surfactant Protein-C (Abcam, ab3786), Aquaporin-5 (Abcam, ab92320), Acetylated α-Tubulin (Abcam, ab24610), α2β1 integrin (Abcam, ab24697), α3β1 integrin (Abcam, ab24696), and CD31 (Daki, M082301-2). Secondary antibodies (1:400): Alexafluor 488 and 594 (Life Technologies).

Test [3] concerns primary human lung epithelial basal cells. The test is described as follows: Effect of ROCK inhibitor on cell phenotype and senescence during cell isolation and passage. In kind it is cell-based. Here is the method:
as §1, with “FIGS. 8A-C: Effect of ROCK Inhibitor on Cell Phenotype and Senescence. […] Donor” for “Donor”, “RNA was isolated using the RNEasy Plus (Qiagen). cDNA was transcribed using the Superscript III kit (Invitrogen).” left out

For test [4], the system named is BESCs. The test is described as follows: In vitro culture of BESCs on Collagen IV plates supplemented with TN-C and/or FBN-2. In kind it is cell-based, human. Conditions: 7 d culture, compared to uncoated or Collagen IV coated wells. As to the method:
24-well plates were pre-coated with human Collagen IV (10 μg/ml) Sigma-Aldrich C7521) for 2 h at 37° C. After removal of the collagen solution, TN-C (10 μg/ml, R&D 3358-TC-050) or the recombinant N-terminal half (FBN-2-N) or C-terminal half (FBN-2-C) of human FBN-2 (10 μg/ml) (Lin et al., The Journal of biological chemistry. 2002; 277(52):50795-804) were then added to select wells, and incubated for 2 h at 37° C. A total of 1×10^5 BESC were subsequently plated to each well and cultured for 7 d in SAGM.
(§2) mRNA was isolated (Qiagen RNeasy Plus Kit) and transcribed to cDNA (Invitrogen SuperScript III). Gene expression was analyzed using Taqman probes and the OneStep Plus system (Applied Biosystems). Each biological sample was analyzed in experimental replicate (n=2 repeated wells of the qPCR reaction) and the Ct value of each replicate was averaged and handed as n=1 unique biologic sample. Expression for each sample was normalized to β-Actin (ACTA1) gene expression (ΔCt) and relative to cadaveric peripheral lung tissue control samples (ΔΔCt), with fold change calculated by 2-ΔΔCt (Livak and Schmittgen, Methods. 2001; 25(4):402-8). A total of n=3 unique biological samples were analyzed for each reported experiment.
After de-paraffinization and rehydration, 5 μm tissue section were permeabilized with 0.1% Triton X-100 for intracellular antigens, when appropriate. […]

Test [5] has as its system BESCs. Nature of the test: In vitro migration assay on protein coatings. In kind it is cell-based, human. Conditions: over 3 h, compared to Collagen IV coating alone, p<0.001; mixture of N- and C-terminal halves of FBN-2. As to the method:
For migration assay, after coating as above, a small inset (MIDI) was added to the wells prior to cell seeding. A total of 1×10^4 cells were seeded within the insert and incubated for 12 h, before the insert was removed. Bright-field images were taken every 30 min for 180 min to track cell migration. Images were analyzed with ImageJ software (Schneider et al., Nature methods. 2012; 9(7):671-5) to quantify the change in cell-free area.

For test [6], the system named is BESCs on decellularized rat lung scaffolds. The test is described as follows: Ex vivo rat lung recellularization on scaffolds pre-coated with TN-C and/or FBN-2. In kind it is cell-based, human. Particulars: Day 3 and 7. Here is the method: Decellularized lung scaffolds were pre-coated with (A) PBS control, (B) TN-C, 10 μg/ml, (C) FBN-2, (10 μg/ml each of N- and C-terminal fragment of FBN-2), or (D) TN-C+FBN-2 (10 μg/ml each of TN-C and of N- and C-terminal fragment of FBN-2), by delivery through the trachea. Solution was recycled to the trachea for 90 min at 37° C. A total of 20×10^6 primary lung epithelial cells (passage 3) were then delivered to the scaffold airways in 20 ml of SAGM by gravity. Constant media perfusion of SAGM through the pulmonary artery was maintained at 4 ml/min (pressure 15-20 mmHg) and changed daily. […]
as §2, with “experiment. […]” for “experiment.”

For the compound `C[C@H](NC(=O)Cc1cc(F)cc(F)c1)C(=O)NC(C(=O)OC(C)(C)C)c1ccccc1` (stereo partly drawn) [DAPT], the “SP-B and SP-C gene expression (type II pneumocyte markers)” value in test [1] is “ineffective alone”. Moreover, in test [2], the “distal type2-like fate after in vitro pre-treatment and inhibitor withdrawal” value is on record as “maintained a distal type2-like fate”.
Take `CC(C)Cn1c(=O)n(C)c(=O)c2[nH]cnc21` [IBMX, 3-Isobutyl-1-methylxanthine]: in test [1], the “SP-B and SP-C gene expression (type II pneumocyte markers)” value was “ineffective alone”.
Take `C[C@@H](N)[C@H]1CC[C@H](C(=O)Nc2ccncc2)CC1` [Y-27632]: in test [3] (during cell isolation and passage), the “basal cell population, proliferation (Ki67, PCNA) and senescence (CDKN2A)” value is reported as “did not enhance the basal cell population, or alter proliferation (Ki67, PCNA) or senescence”. Further, in test [3] (passage 1 and passage 4, n=3 cell lines, t-test), the “gene expression, treated vs untreated” value was “No significant differences”.
“TN-C: Tenascin-C glycoprotein (R&D 3358-TC-050), used as coating at 10 μg/ml”: in the test on BESCs [4], the “proliferation (gene expression)” value was “significantly greater proliferation” and the “senescence (gene expression)” value is listed as “less senescence”. In addition, the “BESC migration rate (change in cell-free area)” value in the test with BESCs [5] is given as “Significantly higher rates of BESC migration”. In test [6], the “Ki67 expression of Krt5+ BESCs (immunofluorescence)” value is listed as “significant increase in proliferation”.
